Reference: PMC3382171 (PLoS ONE, 2012)

Assays:
Test in all cases: biochemical
Design in all cases: Invitrogen SelectScreen kinase panel, percent inhibition at 1 uM, ATP at Km
Settings in all cases: read-out: Invitrogen KSS %Inh at 1 µM
[1] = target: EPHB2 (Homo sapiens, UniProt P29323)
Outline: (§1)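 Commercial kinase panel screens run with ATP at the Km for each kinase. Compounds tested at 1 µM final concentration; values are % inhibition of phosphorylation relative to control.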

[2] = target: MAPK10 (JNK3) (Homo sapiens, UniProt P53779)
MAPK10 (JNK3), sequence (P53779 whole entry): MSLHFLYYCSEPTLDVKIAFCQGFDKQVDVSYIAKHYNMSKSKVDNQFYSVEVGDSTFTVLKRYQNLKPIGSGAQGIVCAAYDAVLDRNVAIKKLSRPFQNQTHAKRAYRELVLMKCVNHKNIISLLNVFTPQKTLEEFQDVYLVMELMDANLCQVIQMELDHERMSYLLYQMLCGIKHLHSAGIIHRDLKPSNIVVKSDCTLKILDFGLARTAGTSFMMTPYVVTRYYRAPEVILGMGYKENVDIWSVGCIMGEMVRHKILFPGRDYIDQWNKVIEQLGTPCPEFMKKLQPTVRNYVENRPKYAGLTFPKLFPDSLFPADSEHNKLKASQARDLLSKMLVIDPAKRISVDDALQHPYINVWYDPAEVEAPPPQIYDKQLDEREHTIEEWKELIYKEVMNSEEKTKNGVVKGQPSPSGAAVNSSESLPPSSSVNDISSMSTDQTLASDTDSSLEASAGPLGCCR
Outline: as §1

[3] = target: SRC (Homo sapiens, UniProt P12931)
SRC, sequence (P12931 whole entry): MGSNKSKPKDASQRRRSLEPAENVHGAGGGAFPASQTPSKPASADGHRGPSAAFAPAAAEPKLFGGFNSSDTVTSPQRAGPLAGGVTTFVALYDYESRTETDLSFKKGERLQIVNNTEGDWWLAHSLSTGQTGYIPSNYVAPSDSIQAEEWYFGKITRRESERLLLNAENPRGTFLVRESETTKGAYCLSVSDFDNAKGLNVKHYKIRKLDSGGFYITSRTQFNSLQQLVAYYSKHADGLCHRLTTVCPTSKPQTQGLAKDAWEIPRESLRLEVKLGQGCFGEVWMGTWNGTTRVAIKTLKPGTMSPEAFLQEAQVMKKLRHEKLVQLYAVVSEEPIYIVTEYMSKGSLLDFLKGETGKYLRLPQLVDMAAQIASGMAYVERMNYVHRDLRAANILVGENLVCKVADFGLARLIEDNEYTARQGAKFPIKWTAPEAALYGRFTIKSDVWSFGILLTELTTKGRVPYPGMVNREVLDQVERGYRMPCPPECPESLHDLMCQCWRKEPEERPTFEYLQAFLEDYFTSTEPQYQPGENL
Outline: as §1

[4] = target: PRKCG (PKC gamma) (Homo sapiens, UniProt P05129)
Outline: as §1

[5] = target: INSRR (IRR) (Homo sapiens, UniProt P14616)
Outline: as §1

[6] = target: PLK1 (Homo sapiens, UniProt P53350)
Outline: as §1

[7] = target: TEK (Tie2) (Homo sapiens, UniProt Q02763)
Outline: as §1

[8] = target: GRK4 (Homo sapiens, UniProt P32298)
Outline: as §1

[9] = target: ZAP70 (Homo sapiens, UniProt P43403)
Outline: as §1

[10] = target: EEF2K (Homo sapiens, UniProt O00418)
EEF2K, sequence (O00418 whole entry): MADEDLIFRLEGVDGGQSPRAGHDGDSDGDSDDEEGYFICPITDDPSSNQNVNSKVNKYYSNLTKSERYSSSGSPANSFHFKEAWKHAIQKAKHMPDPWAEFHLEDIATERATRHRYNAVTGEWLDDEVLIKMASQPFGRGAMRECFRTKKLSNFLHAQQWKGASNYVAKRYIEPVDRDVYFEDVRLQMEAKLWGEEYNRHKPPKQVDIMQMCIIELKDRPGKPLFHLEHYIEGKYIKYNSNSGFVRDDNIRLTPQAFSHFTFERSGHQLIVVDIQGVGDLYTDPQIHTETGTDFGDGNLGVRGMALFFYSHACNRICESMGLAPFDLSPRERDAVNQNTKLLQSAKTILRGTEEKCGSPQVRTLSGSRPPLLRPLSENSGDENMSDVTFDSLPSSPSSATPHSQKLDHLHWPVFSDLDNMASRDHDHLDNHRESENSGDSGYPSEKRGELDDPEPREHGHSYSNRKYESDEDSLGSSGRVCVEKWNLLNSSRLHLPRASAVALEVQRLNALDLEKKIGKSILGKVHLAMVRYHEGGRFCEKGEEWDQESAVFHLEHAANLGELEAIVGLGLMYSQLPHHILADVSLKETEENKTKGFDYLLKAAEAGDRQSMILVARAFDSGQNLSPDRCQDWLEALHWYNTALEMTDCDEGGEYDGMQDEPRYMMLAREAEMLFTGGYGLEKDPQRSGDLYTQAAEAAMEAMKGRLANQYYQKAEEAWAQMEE
Outline: as §1

[11] = target: FRAP1 (mTOR) (Homo sapiens, UniProt P42345)
Outline: as §1

[12] = target: SYK (Homo sapiens, UniProt P43405)
Outline: as §1

[13] = target: RPS6KA1 (RSK1) (Homo sapiens, UniProt Q15418)
Outline: as §1

[14] = target: PIM1 (Homo sapiens, UniProt P11309)
PIM1, sequence (P11309 whole entry): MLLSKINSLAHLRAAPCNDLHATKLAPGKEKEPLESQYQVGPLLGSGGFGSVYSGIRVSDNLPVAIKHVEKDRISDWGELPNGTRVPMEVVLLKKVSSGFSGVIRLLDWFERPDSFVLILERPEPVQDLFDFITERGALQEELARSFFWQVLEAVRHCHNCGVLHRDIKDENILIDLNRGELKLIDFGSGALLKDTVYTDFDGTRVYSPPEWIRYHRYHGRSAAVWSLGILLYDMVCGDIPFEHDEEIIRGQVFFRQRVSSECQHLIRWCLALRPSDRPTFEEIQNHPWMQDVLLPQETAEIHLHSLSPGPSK
Outline: as §1

[15] = target: TBK1 (Homo sapiens, UniProt Q9UHD2)
Outline: as §1

[16] = target: FGFR4 (Homo sapiens, UniProt P22455)
FGFR4, sequence (P22455 whole entry): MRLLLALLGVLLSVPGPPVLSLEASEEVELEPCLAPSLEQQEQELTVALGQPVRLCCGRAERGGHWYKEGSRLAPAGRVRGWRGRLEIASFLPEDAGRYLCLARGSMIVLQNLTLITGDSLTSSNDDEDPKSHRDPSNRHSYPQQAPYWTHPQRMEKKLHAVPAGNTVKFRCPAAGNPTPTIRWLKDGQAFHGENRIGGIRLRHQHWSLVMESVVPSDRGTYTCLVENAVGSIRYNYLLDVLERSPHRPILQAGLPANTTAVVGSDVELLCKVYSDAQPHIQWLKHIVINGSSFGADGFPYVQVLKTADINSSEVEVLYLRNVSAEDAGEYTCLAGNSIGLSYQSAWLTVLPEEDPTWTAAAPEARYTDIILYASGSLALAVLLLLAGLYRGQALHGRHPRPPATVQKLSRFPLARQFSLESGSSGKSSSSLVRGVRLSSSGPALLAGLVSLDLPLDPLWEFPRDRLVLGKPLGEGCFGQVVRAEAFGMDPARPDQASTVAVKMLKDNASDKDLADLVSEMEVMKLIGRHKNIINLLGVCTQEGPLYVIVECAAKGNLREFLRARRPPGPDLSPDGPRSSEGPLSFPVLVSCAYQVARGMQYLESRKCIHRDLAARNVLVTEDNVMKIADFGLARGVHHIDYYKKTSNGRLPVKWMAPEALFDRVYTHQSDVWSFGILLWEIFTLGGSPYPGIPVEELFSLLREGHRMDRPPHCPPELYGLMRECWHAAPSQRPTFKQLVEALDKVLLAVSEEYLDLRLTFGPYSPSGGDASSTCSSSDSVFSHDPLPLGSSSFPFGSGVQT
Outline: as §1

[17] = target: MAPK14 (p38 alpha)** (Homo sapiens, UniProt Q16539)
MAPK14 (p38 alpha)**, sequence (Q16539 whole entry): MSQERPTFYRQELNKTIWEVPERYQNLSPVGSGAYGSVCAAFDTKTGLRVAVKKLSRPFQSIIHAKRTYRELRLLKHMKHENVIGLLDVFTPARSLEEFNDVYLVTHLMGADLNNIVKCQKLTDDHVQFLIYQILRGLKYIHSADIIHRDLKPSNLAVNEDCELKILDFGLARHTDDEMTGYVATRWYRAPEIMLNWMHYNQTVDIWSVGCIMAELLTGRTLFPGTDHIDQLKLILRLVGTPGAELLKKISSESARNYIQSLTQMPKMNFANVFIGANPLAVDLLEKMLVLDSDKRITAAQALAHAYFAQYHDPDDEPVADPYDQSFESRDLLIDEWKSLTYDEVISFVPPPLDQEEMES
Outline: as §1

[18] = target: PRKD2 (PKD2) (Homo sapiens, UniProt Q9BZL6)
Outline: as §1

[19] = target: PIM2 (Homo sapiens, UniProt Q9P1W9)
PIM2, sequence (Q9P1W9 whole entry): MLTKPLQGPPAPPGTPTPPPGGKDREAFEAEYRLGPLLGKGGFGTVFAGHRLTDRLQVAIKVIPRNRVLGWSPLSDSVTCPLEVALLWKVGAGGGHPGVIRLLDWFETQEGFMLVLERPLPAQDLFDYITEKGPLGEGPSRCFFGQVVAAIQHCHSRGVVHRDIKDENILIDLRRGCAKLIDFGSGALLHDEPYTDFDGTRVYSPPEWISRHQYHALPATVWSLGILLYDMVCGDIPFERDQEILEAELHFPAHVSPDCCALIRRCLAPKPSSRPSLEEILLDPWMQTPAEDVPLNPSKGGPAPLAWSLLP
Outline: as §1

[20] = target: PTK2B (FAK2) (Homo sapiens, UniProt Q14289)
Outline: as §1

[21] = target: MAP3K8 (COT) (Homo sapiens, UniProt P41279)
MAP3K8 (COT), sequence (P41279 whole entry): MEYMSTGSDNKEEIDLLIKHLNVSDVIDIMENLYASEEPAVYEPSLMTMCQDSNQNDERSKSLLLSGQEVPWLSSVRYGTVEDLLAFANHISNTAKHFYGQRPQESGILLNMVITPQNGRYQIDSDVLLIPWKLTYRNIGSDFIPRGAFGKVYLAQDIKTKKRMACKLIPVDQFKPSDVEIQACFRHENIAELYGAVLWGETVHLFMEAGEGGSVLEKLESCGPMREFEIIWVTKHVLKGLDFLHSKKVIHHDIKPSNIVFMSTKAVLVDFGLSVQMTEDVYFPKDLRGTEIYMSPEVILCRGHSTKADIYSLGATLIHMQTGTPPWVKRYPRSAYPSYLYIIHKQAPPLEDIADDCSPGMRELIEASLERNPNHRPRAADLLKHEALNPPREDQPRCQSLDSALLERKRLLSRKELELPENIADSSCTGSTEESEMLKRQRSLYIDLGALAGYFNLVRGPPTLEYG
Outline: as §1

[22] = target: ABL1 T315I (Homo sapiens, UniProt P00519, T315I)
Outline: as §1

[23] = target: PRKG1 (Homo sapiens, UniProt Q13976)
PRKG1, sequence (Q13976 whole entry): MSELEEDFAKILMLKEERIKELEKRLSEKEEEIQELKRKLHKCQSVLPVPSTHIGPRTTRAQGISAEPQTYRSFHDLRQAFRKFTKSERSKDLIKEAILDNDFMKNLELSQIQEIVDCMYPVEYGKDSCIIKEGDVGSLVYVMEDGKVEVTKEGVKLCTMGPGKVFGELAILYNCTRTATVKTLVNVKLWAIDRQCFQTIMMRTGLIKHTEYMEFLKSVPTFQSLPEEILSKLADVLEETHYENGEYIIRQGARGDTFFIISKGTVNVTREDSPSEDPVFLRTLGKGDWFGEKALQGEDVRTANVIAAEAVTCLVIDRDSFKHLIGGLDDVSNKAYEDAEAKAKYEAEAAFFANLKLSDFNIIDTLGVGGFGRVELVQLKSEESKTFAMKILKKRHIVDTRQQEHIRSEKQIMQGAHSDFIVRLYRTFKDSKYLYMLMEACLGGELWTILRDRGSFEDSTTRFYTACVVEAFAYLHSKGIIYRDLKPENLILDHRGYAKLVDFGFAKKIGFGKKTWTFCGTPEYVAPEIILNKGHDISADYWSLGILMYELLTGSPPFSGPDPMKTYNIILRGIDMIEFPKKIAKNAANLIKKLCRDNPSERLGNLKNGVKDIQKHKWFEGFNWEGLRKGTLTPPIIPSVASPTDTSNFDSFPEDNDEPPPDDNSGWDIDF
Outline: as §1

SMILES: N#CCCNc1nccc(-c2cn(CC(F)F)nc2-c2cnc3[nH]ccc3c2)n1 [RAFi, PF-04880594]
- inhibition at 1 µM [1]: 3%
- inhibition at 1 µM [2]: 81%
- inhibition at 1 µM [3]: 1%
- inhibition at 1 µM [4]: -15%
- inhibition at 1 µM [5]: 3%
- inhibition at 1 µM [6]: 27%
- inhibition at 1 µM [7]: 2%
- inhibition at 1 µM [8]: -18%
- inhibition at 1 µM [9]: 3%
- inhibition at 1 µM [10]: 14%
- inhibition at 1 µM [11]: -7%
- inhibition at 1 µM [12]: -35%
- inhibition at 1 µM [13]: 6%
- inhibition at 1 µM [14]: 2%
- inhibition at 1 µM [15]: -7%
- inhibition at 1 µM [16]: 5%
- inhibition at 1 µM [17]: 93%
- inhibition at 1 µM [18]: 40%
- inhibition at 1 µM [19]: 3%
- inhibition at 1 µM [20]: 6%
- inhibition at 1 µM [21]: 24%
- inhibition at 1 µM [22]: -21%
- inhibition at 1 µM [23]: -3%
